Values quoted from earlier work as cited in US6867197B1, “Method of targeting conjugate molecules to mitochondria” (Mitokor, priority 1995, dated 2005).

Tested on: mitochondria
Conditions: high concentrations; NAO is a mitochondrial toxin at these concentrations

CCCCCCCCC[n+]1c2cc(N(C)C)ccc2cc2ccc(N(C)C)cc21 [NAO, 10N-nonylacridine orange]
concentrations at which electron transport, ATP hydrolysis and Pi-transport are inhibited and respiration disrupted: 3 to 10 µM
